Source: PMC4113456, “Atypical Signaling and Functional Desensitization Response of MAS Receptor to Peptide Ligands” (PLoS ONE, 2014)

Target: T1, MAS (Homo sapiens, UniProt P04201)
T1 construct: expressed in transfected cells
T1 sequence (P04201 1-325): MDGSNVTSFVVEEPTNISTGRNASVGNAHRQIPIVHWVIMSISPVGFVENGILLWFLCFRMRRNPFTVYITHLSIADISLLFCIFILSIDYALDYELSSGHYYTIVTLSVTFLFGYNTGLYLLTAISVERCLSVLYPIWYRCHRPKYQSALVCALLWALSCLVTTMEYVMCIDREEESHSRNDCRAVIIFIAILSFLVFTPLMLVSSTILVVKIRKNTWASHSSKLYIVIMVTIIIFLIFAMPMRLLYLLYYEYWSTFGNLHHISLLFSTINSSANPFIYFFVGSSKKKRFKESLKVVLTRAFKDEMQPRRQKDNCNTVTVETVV
Assay: Calcium re-stimulation and antagonism assays, MAS expressing stable cells
Assay type: cell-based
Protocol: The assay was performed using FLIPR Calcium 5 assay kit (Molecular Devices, Sunnyvale, CA). For calcium measurements, cells at a density of 125,000 cells/well in 100 µl medium were seeded onto a 96-well clear bottom black cell culture plate that was pre-coated with poly-L-lysine. In the calcium assays the cell density of 125,000 cells/well was consistently maintained to minimize variability between independent experiments. The cells were seeded in induction media to induce MAS expression or in complete media for negative controls. The plate was maintained in a cell culture incubator for 26–28 h. The cells were then serum starved for 2 h by replacing the medium with 100 µl of serum free DMEM. In the case of pre-treatment with pan-inhibitor of G protein signaling, BIM-46187, the cells were initially serum starved for 1 h by replacing the medium with 50 µl of serum free DMEM. After 1 h, 50 µl of BIM-46187 was added to the cells to a final concentration of 25 µM and treated for another 1 h. Following serum starvation, 100 µl of calcium sensitive dye along with 2x (2.5 mM final concentration) probenecid (Life Technologies, Grand Island, NY) was added to the cells. During this step, AR-inverse agonist or BIM-46187 was also added at desired concentrations to the calcium dye preparation in case of experiments where cells were pre-treated with these inhibitors. The cells were maintained for one hour in the cell culture incubator. […] The instrument was programmed in FLEX mode to add ligands (50 µl at 5x concentration) to the cells and to monitor the fluorescence before and after adding the ligands. […]
For re-stimulation assays, the data is expressed as the percentage of maximum agonist stimulation to allow for ready comparison between individual experiments. For the IP1 assay, a standard curve was generated using the 4-Parameter logistic equation fit of the HTRF readings of IP1 standards using the SoftMax Pro software. […] In the luciferase assay, the luminescence measurements (RLU) are presented as a ratio of firefly to renilla luciferase activity. […]

Structure (SMILES) | Response to second agonist (NPFF or AR-agonist) after first stimulation with the ligand (re-stimulation assay, second ligand at 600 s) | Inhibition of NPFF calcium response (first ligand at 25 µM, then NPFF) | Inhibition of AR-agonist calcium dose-response by pre-treatment (pre-treatment at 25 µM)
COc1cc([N+](=O)[O-])ccc1S(=O)(=O)N1CC(CN2CCN(c3ccccn3)CC2)C(c2cccc(F)c2)C1 (stereo not drawn) [AR-agonist] | did not respond | – | –
C=CCCN1CCC2(CC1)CN(C(=O)c1c(F)cccc1F)c1ccc(Cl)cc12 [AR-inverse] | – | completely inhibited | complete inhibition
